“Also recorded” adds a separate entry of the source.
Assays:
HIV-1 = format: cell-based
Vero cells = test: Cytotoxicity in Vero cells; format: cell-based, African Green monkey
primary human PBM cells = test: Cytotoxicity in primary human PBM cells; format: cell-based

| Structure (SMILES) | Toxicity in CEM cells (in words) (CEM cells) | Anti-HIV-1 activity (in words) (HIV-1) | Toxicity in Vero cells (in words) (Vero cells) | Toxicity in primary human PBM cells (in words) (primary human PBM cells) |
| --- | --- | --- | --- | --- |
| Cc1c2c(nn1CC(=O)NCc1ccccc1Br)-c1ccccc1S(=O)(=O)N2C [Compound 6d] | toxic | active | toxic | – |
| Cc1c2c(nn1CC(=O)NCc1ccccc1Cl)-c1ccccc1S(=O)(=O)N2C [Compound 6a] | no toxicity | active | toxic; also recorded: displayed toxicity | no toxicity |
| Cc1c2c(nn1CC(=O)Nc1ccccc1F)-c1ccccc1S(=O)(=O)N2C [Compound 7b] | – | effective inhibitors; also recorded: active | – | – |
| Cc1c2c(nn1CC(=O)NCc1ccc(F)cc1)-c1ccccc1S(=O)(=O)N2C [Compound 6c] | toxic | – | – | – |
| Cc1ccc(CNC(=O)Cn2nc3c(c2C)N(C)S(=O)(=O)c2ccccc2-3)cc1 [Compound 6i] | no toxicity | active | no toxicity | no toxicity |
| Cc1c2c(nn1CC(=O)Nc1ccccc1Br)-c1ccccc1S(=O)(=O)N2C [Compound 7c] | – | effective inhibitors; also recorded: active | – | – |
| COc1ccccc1CNC(=O)Cn1nc2c(c1C)N(C)S(=O)(=O)c1ccccc1-2 [Compound 6e] | no toxicity | active | no toxicity | no toxicity |
| COc1cccc(NC(=O)Cn2nc3c(c2C)N(C)S(=O)(=O)c2ccccc2-3)c1 [Compound 7e] | – | effective inhibitors; also recorded: active | no toxicity | – |
| Cc1c2c(nn1CC(=O)Nc1ccccc1)-c1ccccc1S(=O)(=O)N2C [Compound 7a] | – | effective inhibitors; also recorded: active | – | – |
| COc1cccc(CNC(=O)Cn2nc3c(c2C)N(C)S(=O)(=O)c2ccccc2-3)c1 [Compound 6f] | toxic | – | toxic | toxic |
| Cc1c2c(nn1CC(=O)Nc1cccc(Br)c1)-c1ccccc1S(=O)(=O)N2C [Compound 7d] | – | effective inhibitors; also recorded: active | – | – |
| COc1ccc(CNC(=O)Cn2nc3c(c2C)N(C)S(=O)(=O)c2ccccc2-3)cc1 [Compound 6g] | no toxicity | active | no toxicity | no toxicity |

Source: PMC7717120 (Bioorganic & medicinal chemistry letters, 2015)
